Measurements reported in ChEMBL document CHEMBL4043296 (J Med Chem, 2018).

Legend:
D(4) dopamine receptor [1] = biological target: T1, D(4) dopamine receptor (Homo sapiens, UniProt P21917); assay: Displacement of [3H]N-methylspiperone from human dopamine D4 receptor expressed in HEK293 cell membranes after 1 hr by scintillation counting method
T1 sequence (P21917 whole entry): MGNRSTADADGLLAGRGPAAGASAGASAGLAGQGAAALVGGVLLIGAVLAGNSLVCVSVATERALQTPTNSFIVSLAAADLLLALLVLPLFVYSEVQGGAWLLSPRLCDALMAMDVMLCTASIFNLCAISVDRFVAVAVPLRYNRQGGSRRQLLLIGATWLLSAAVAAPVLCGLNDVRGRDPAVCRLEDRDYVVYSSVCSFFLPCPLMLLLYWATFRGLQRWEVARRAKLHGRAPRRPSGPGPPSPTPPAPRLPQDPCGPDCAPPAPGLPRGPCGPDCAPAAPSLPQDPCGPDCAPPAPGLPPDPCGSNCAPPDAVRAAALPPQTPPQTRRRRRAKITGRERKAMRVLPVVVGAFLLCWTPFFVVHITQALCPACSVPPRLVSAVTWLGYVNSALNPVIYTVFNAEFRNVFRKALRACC

Homo sapiens = species: Homo sapiens; assay: Selectivity ratio of Ki for human dopamine D2 receptor to Ki for human dopamine D4 receptor
D(2) dopamine receptor = D(2) dopamine receptor (Homo sapiens, UniProt P14416); assay: Displacement of [3H]N-methylspiperone from human dopamine D2 receptor expressed in HEK293 cell membranes after 1 hr by scintillation counting method
D(3) dopamine receptor = D(3) dopamine receptor (Homo sapiens, UniProt P35462); assay: Displacement of [3H]N-methylspiperone from human dopamine D3 receptor expressed in HEK293 cell membranes after 1 hr by scintillation counting method
[2] = biological target: T2, Muscarinic acetylcholine receptor M1 (Homo sapiens, UniProt P11229); assay: Displacement of [3H]NMS from human muscarinic M1 receptor expressed in CHO cell membranes after 2 hrs by liquid scintillation counting method
T2 sequence (P11229 whole entry): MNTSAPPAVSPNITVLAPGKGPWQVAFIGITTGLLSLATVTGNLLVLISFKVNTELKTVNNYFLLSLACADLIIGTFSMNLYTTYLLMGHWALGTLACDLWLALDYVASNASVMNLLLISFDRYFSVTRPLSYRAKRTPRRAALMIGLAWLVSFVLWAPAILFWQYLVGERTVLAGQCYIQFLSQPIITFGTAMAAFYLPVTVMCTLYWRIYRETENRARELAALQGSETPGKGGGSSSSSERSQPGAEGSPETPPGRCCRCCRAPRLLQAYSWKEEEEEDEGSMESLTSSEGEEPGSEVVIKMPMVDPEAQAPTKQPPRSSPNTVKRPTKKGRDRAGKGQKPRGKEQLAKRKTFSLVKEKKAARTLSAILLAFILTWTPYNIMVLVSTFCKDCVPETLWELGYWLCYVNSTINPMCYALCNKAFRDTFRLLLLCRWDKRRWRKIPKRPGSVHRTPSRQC

[3] = biological target: T3, Muscarinic acetylcholine receptor M2 (Homo sapiens, UniProt P08172); assay: Displacement of [3H]NMS from human muscarinic M2 receptor expressed in CHO cell membranes after 2 hrs by liquid scintillation counting method
T3 sequence (P08172 whole entry): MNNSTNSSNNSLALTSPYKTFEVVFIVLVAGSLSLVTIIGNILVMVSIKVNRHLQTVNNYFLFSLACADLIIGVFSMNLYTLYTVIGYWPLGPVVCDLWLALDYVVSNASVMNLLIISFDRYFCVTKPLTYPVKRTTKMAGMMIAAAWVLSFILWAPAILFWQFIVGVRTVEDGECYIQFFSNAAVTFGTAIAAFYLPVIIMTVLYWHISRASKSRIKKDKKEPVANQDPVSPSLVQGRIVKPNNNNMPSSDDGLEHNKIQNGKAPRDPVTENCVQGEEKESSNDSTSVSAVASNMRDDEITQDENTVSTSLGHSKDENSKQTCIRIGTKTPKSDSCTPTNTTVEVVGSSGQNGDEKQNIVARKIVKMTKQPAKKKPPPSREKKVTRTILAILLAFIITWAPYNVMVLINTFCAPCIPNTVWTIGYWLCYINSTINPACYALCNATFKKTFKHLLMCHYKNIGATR

[4] = biological target: Muscarinic acetylcholine receptor M3 (Homo sapiens, UniProt P20309); assay: Displacement of [3H]NMS from human muscarinic M3 receptor expressed in CHO cell membranes after 2 hrs by liquid scintillation counting method
[5] = biological target: T4, Muscarinic acetylcholine receptor M4 (Homo sapiens, UniProt P08173); assay: Displacement of [3H]NMS from human muscarinic M4 receptor expressed in CHO cell membranes after 2 hrs by liquid scintillation counting method
T4 sequence (P08173 whole entry): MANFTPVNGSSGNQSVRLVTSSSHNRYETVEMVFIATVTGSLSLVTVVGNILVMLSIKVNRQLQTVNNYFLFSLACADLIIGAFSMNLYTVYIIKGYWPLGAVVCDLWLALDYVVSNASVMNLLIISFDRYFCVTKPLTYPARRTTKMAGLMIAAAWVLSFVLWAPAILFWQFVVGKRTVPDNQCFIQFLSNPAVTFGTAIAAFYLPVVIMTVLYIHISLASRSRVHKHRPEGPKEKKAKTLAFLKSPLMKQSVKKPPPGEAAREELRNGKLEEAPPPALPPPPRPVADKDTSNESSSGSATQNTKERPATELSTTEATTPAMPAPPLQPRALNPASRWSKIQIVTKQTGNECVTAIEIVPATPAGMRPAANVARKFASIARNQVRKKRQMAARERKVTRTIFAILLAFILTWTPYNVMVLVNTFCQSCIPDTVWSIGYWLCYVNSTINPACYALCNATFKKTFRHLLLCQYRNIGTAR

[6] = biological target: T5, Muscarinic acetylcholine receptor M5 (Homo sapiens, UniProt P08912); assay: Displacement of [3H]NMS from human muscarinic M5 receptor expressed in CHO cell membranes after 2 hrs by liquid scintillation counting method
T5 sequence (P08912 whole entry): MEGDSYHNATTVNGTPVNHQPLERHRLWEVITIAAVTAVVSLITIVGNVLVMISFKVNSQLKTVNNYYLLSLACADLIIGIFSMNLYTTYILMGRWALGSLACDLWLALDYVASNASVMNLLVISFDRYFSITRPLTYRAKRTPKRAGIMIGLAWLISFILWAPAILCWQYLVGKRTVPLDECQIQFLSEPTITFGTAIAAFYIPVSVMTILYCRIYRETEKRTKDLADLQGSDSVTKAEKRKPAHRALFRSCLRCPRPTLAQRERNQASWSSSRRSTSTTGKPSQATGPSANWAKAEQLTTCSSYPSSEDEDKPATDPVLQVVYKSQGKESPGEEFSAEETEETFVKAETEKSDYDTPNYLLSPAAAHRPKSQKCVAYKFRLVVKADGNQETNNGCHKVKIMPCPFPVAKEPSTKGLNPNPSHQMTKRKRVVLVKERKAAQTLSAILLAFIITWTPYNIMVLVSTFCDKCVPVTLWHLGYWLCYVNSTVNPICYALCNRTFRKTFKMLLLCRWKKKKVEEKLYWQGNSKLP

D(4) dopamine receptor [7] = biological target: T1, D(4) dopamine receptor; assay: Antagonist activity at human SP/Myc epitope-tagged dopamine D4 receptor expressed in HEK293T cells assessed as inhibition of dopamine-induced RLuc8-fused Galphai1 activation preincubated for 15 mins followed by dopamine induction measured after 2 mins by BRET assay; format: cell-based, HEK-293T
D(4) dopamine receptor [8] = biological target: T1, D(4) dopamine receptor; assay: Antagonist activity at human SP/Myc epitope-tagged dopamine D4 receptor expressed in HEK293T cells assessed as inhibition of dopamine-induced mVenus-fused beta-arrestin2 recruitment preincubated for 15 mins followed by dopamine induction measured after 2 mins by BRET assay; format: cell-based, HEK-293T

Sequence of D(3) dopamine receptor (P35462 whole entry): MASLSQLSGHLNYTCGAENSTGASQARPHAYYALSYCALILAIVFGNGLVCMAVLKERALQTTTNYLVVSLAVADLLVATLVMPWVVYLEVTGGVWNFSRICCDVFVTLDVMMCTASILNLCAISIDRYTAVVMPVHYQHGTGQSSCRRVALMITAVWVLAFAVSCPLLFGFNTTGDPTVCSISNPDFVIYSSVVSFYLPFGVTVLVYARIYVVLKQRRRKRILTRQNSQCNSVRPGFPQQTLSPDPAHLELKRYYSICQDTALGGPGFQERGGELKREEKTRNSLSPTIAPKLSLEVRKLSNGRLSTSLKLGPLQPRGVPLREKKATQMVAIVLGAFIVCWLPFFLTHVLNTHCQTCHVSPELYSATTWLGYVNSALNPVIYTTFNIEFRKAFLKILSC
Sequence of D(2) dopamine receptor (P14416 whole entry): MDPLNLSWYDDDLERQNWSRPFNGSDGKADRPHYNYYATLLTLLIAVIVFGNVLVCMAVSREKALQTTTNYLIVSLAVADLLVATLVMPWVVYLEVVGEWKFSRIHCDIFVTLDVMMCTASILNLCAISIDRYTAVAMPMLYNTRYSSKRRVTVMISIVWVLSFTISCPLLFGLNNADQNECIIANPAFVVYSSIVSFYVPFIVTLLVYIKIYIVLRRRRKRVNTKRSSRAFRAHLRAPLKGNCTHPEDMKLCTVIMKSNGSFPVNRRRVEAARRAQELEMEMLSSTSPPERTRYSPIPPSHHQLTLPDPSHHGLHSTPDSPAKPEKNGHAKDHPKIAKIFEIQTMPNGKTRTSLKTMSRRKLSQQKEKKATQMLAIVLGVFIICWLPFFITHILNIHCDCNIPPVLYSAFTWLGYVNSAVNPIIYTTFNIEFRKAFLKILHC
Sequence of Muscarinic acetylcholine receptor M3 (P20309 whole entry): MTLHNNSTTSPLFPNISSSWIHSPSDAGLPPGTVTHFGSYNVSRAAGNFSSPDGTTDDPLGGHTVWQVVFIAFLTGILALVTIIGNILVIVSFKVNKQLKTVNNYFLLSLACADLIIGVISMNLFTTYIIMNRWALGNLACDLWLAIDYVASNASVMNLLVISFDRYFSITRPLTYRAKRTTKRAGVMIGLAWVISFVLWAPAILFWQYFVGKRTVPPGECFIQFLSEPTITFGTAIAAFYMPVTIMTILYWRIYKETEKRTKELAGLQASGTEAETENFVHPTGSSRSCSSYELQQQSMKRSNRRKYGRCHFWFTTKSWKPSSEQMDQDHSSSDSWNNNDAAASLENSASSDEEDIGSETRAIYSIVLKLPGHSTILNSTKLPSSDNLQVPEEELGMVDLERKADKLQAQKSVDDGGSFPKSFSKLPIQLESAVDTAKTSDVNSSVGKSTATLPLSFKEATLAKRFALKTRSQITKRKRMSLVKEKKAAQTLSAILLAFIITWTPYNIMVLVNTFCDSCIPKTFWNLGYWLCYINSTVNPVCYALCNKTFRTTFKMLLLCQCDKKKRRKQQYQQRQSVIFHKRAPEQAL

Row | Compound | Ki (D(4) dopamine receptor [1]) [nM] | Ratio Ki (Homo sapiens) | Ki (D(2) dopamine receptor) [nM] | Ki (D(3) dopamine receptor) [nM] | Ki [2] [nM] | Ki [3] [nM] | Ki [4] [nM] | Ki [5] [nM] | Ki [6] [nM] | IC50 (D(4) dopamine receptor [7]) [nM] | IC50 (D(4) dopamine receptor [8]) [nM]
1 | COc1cccc(CCC2=NCCN2CCc2ccccc2)c1 | 95.5 | > 105 | – | – | – | – | – | – | – | – | –
2 | O=C1CCc2ccccc2N1CCCN1CCC(CCc2ccccc2)CC1 | 2.14 | 135 | 288 | 407 | 263 | 204 | 501 | 200 | 759 | – | –
3 | O=C1CCc2ccccc2N1CCCN1CCC(CCCCCO)CC1 | 4.37 | 269 | 1170 | 676 | – | – | – | – | – | 126 | 151
4 | O=C1CCc2ccccc2N1CCCN1CCN(CCc2ccccc2)CC1 | 28.8 | 200 | 5750 | 3980 | 2290 | 1780 | 6610 | 5130 | 7940 | – | –
5 | CC1CCN(CCCN2C(=O)CCc3ccccc32)CC1 | 257 | 17 | 4470 | 3720 | 12000 | 11500 | 14100 | 9330 | 24000 | – | –
6 | O=C1CCc2ccccc2N1CCCN1CCC(CCCO)CC1 | 74.1 | 9 | 661 | 589 | – | – | – | – | – | – | –
7 | O=C1CCc2ccccc2N1CCCN1CCC(CCCCCCCO)CC1 | 100 | 9 | 933 | 955 | – | – | – | – | – | – | –
8 | COc1ccc(Cl)cc1OC[C@@H]1CN(Cc2ccc(Cl)cc2)CCO1 | – | 48 | – | – | – | – | – | – | – | – | –
9 | CCCCCC1CCN(CCCN2C(=O)CCc3ccccc32)CC1 | 1.38 | 380 | 525 | 282 | 490 | 562 | 1350 | 575 | 3550 | – | –
10 | CC(C)Oc1cccnc1N(C)C1CCN(Cc2ccc(I)cc2)CC1 | – | 1720 | – | – | – | – | – | – | – | – | –
11 | CCCCN1CCN(CCCN2C(=O)CCc3ccccc32)CC1 | 316 | 16 | 5130 | 3890 | 2690 | 4170 | 7080 | 3160 | 9120 | – | –
12 | O=C1CCc2ccccc2N1CCCN1CCC(c2ccccc2)CC1 | 1.95 | 234 | 457 | 708 | 2880 | 2400 | 4680 | 1290 | 2040 | – | –
13 | CCCC1CCN(CCCN2C(=O)CCc3ccccc32)CC1 | 5.25 | 174 | 912 | 1550 | 2510 | 1910 | 2340 | 1660 | 1950 | – | –
